Experiments:
[1] = test system: acetylcholine effect on bladder contraction; assay: Inhibition of the effect of acetylcholine on the bladder in guinea pigs; assay type: in vivo, guinea pig; settings: Cavia porcellus, 5 min; read-out: -log ED50, Bladder (converted)
Procedure: (§1) 5 minutes after the administration of the test substance, 10 microgram/kg of acetylcholine were simultaneously injected intravenously and intra-arterially into anesthetized guinea pigs. The heart rate was recorded directly by extracorporeal derivation of the ECG, the expiration resistance according to Konzett-Rossler and contraction of the exposed bladder. In order to determine the inhibition of the acetylcholine activity on the organs under investigation, dosage/activity curves were recorded and from them -log ED50 values were determined.

[2] = test system: acetylcholine effect on bronchi (expiration resistance); assay: Inhibition of the effect of acetylcholine on bronchi in guinea pigs; assay type: in vivo, guinea pig; settings: Cavia porcellus, 5 min; read-out: -log ED50, Bronchi (converted)
Procedure: as §1

[3] = test system: acetylcholine effect on heart rate; assay: Inhibition of the effect of acetylcholine on heart rate in guinea pigs; assay type: in vivo, guinea pig; settings: Cavia porcellus, 5 min; read-out: -log ED50, Heart (converted)
Procedure: as §1

[4] = molecular target: muscarinic receptors, cerebral cortex; assay: Receptor binding test in vitro, 3H-NMS displacement, cerebral cortex homogenate; settings: rat cerebral cortex homogenate 1:3000; 0.3 nanomolar 3H-NMS; 30° C., 45 minutes; read-out: Receptor Binding Tests IC50, Cortex
Procedure: (§2) The organs were donated by male Sprague-Dawley rats weighing 180-220 g. After the heart and submandular gland and cerebral cortex had been removed, all other steps were carried out in ice cold Hepes HCl buffer (pH 7.4; 100 millimolar NaCl, 10 millimolar MgCl2). The whole heart was cut up with scissors. All the organs were then homogenized in a Potter apparatus.
(§3) For the binding test the homogenized organs were diluted as follows:
(§4) The homogenized organs were incubated at a certain concentration of the radioligand and at a series of concentrations of the non-radioactive test substances in an Eppendorf centrifuge tube at 30° C. Incubation lasted 45 minutes. The radioligand used was 0.3 nanomolar ^3 H--N- methylscopolamine (^3 H-NMS). Incubation was ended by the addition of ice cold buffer followed by vacuum filtration. The filters were rinsed with cold buffer and their radioactivity was determined. It represents the sum of specific and non-specific binding of ^3 H-NMS. The proportion of non-specific binding was defined as the radioactivity which was bound in the presence of 1 micromolar quinuclidinylbenzylate. Each measurement was taken four times. The IC50 values of the non-labelled test substances were determined graphically. They represent that concentration of test substance at which the specific binding of ^3 H-NMS to the muscarinic receptors in the various organs was inhibited by 50%.

[5] = molecular target: T1, muscarinic receptors, heart (Rattus norvegicus, UniProt P10980); assay: Receptor binding test in vitro, 3H-NMS displacement, whole heart homogenate; settings: rat whole heart homogenate 1:400; 0.3 nanomolar 3H-NMS; 30° C., 45 minutes; read-out: Receptor Binding Tests IC50, Heart
T1 construct: The whole heart was cut up with scissors; from tissue; host or cells: whole heart of male Sprague-Dawley rats, homogenate
T1 sequence (P10980 1-466): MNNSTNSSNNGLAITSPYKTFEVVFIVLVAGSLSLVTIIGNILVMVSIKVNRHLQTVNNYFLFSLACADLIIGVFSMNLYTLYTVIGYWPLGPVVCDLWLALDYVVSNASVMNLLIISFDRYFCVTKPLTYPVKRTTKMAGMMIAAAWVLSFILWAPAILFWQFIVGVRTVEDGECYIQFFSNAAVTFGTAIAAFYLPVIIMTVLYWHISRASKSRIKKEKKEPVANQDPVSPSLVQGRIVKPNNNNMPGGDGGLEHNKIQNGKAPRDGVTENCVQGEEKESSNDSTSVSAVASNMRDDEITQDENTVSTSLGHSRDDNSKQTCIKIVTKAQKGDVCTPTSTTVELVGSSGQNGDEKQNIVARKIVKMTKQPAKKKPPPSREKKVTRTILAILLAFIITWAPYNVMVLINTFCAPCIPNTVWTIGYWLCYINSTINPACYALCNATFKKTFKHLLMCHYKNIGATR
Procedure: as §2, §3, §4

[6] = test system: rise in blood pressure caused by McN-A-343 (M1); assay: M1/M2 selectivity in the rat: reduction of rise in blood pressure caused by McN-A-343; assay type: in vivo; settings: iv, 5 min, male THOM rats, i.v., dose reducing rise in blood pressure (M1) caused by 0.3 mg/kg McN-A-343 by 50%, read-out: -log ED50, Blood pressure (converted)
Procedure: (§5) The dosage of the substances which reduced either the vagal bradycardia (M2) or the rise in blood pressure (M1) by 50% was determined graphically. For the results see Table II.

[7] = molecular target: T2, muscarinic receptors, submandibular gland (Rattus norvegicus, UniProt P08483); assay: Receptor binding test in vitro, 3H-NMS displacement, submandibular gland homogenate; settings: rat submandibular gland homogenate 1:400; 0.3 nanomolar 3H-NMS; 30° C., 45 minutes; read-out: Receptor Binding Tests IC50, Submandibular gland
T2 construct: All the organs were then homogenized in a Potter apparatus; from tissue; host or cells: submandibular gland of male Sprague-Dawley rats, homogenate
T2 sequence (P08483 whole entry): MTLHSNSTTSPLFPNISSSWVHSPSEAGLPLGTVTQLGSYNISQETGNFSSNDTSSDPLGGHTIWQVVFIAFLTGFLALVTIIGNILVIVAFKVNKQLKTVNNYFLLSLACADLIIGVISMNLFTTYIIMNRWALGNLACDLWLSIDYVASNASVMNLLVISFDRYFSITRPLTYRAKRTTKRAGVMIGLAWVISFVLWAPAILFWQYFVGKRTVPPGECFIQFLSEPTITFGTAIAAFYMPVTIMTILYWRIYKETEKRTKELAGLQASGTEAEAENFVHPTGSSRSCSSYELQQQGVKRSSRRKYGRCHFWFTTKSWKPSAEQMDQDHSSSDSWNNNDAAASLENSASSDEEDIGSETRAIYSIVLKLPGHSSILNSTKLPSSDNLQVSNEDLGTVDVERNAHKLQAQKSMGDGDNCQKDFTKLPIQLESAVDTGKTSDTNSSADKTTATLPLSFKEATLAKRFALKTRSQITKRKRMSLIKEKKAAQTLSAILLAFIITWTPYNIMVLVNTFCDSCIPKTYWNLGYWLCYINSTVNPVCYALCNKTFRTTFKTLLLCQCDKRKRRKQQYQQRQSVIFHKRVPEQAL
Procedure: as §2, §3, §4

[8] = test system: vagal bradycardia (M2); assay: M1/M2 selectivity in the rat: reduction of bradycardia caused by vagus stimulation; assay type: in vivo; settings: iv, 5 min, male THOM rats, i.v., dose reducing vagal bradycardia (M2) by 50%, 5 minutes after injection, read-out: -log ED50, Heart (converted)
Procedure: as §5

[9] = test system: secretion of saliva initiated by pilocarpine; assay: Salivation-inhibiting effect in the rat (pilocarpine-induced); assay type: in vivo; settings: iv, male THOM rats anesthetized with urethane, i.v., dose reducing volume of saliva by 50%, 2 mg/kg s.c. pilocarpine, read-out: -log ED50, Salivation inhibition (converted)
Procedure: The secretion of saliva was initiated by subcutaneous administration of 2 mg/kg of pilocarpine. The saliva was absorbed with blotting paper and the surface area covered was measured every 5 minutes by planimetry. The dosage of the substance which reduced the volume of saliva by 50% was determined graphically. For the results see Table II.

| IC50 [4] [nM] | IC50 [5] [nM] | IC50 [7] [nM] | Structure (SMILES) | ED50 [1] [µmol/kg] | ED50 [2] [µmol/kg] | ED50 [3] [µmol/kg] | ED50 [6] [µmol/kg] | ED50 [8] [µmol/kg] | ED50 [9] [µmol/kg] |
| --- | --- | --- | --- | --- | --- | --- | --- | --- | --- |
| – | – | – | CN1CCCC1CCNCC(=O)N1c2ccccc2C(=O)Nc2cccnc21 (stereo not drawn) [A, 5,11-dihydro-11-[[[2-(1-methyl-2-pyrrolidinyl)ethyl]amino]acetyl]-6H-pyrido[2,3-b][1,4]benzodiazepin-6-one] | 0.537 | 0.102 | 0.0977 | – | – | – |
| 30 | 6 | 50 | CCN1CCCC1CN(C)CC(=O)N1c2ccccc2C(=O)Nc2cccnc21 (stereo not drawn) [B, 5,11-dihydro-11-[[[(1-ethyl-2-pyrrolidinyl)methyl]methylamino]acetyl]-6H-pyrido[2,3-b][1,4]benzodiazepin-6-one] | 1.17 | 0.0347 | 0.0457 | 0.141 | 0.00741 | 0.813 |
| – | – | – | CCN(CC)CC1CCCCN1CC(=O)N1c2ccccc2C(=O)Nc2cccnc21 (stereo not drawn) [C, 11-[[2-[(diethylamino)methyl]-1-piperidinyl]acetyl]-5,11-dihydro-6H-pyrido[2,3-b][1,4]benzodiazepin-6-one, reference compound] | – | – | – | – | 0.38 | 10 |
| – | – | – | CN1[C@@H]2CC[C@H]1C[C@@H](OC(=O)C(CO)c1ccccc1)C2 (stereo partly drawn) [E, atropine, reference compound] | 0.0933 | – | 0.02 | 0.0457 | 0.0115 | – |
